Laboratory results: ChEMBL document CHEMBL1132668, “The design of potent and selective inhibitors of thrombin utilizing a piperazinedione template: part 1” (Bioorg Med Chem Lett, 1999)

How the values were obtained:
Prothrombin [1] = target: T1, Prothrombin (Homo sapiens, UniProt P00734); assay: Inhibitory activity against human thrombin
Prothrombin [2] = target: T1, Prothrombin; assay: Binding affinity against thrombin
Serine protease 1 [3] = target: T2, Serine protease 1 (Homo sapiens, UniProt P07477); assay: Inhibitory activity against human trypsin
T2 sequence (P07477 whole entry): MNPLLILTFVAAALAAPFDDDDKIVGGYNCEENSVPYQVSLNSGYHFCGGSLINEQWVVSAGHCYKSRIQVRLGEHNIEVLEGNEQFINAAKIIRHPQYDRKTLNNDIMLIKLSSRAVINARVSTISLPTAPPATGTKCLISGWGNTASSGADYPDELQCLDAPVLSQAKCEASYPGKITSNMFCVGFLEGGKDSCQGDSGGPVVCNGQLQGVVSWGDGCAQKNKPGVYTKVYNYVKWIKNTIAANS

Serine protease 1 [4] = target: T2, Serine protease 1; assay: Compound was tested for the binding affinity against trypsin
Serine protease 1 [5] = target: T2, Serine protease 1; assay: Tested for the inhibition of trypsin at a concentration of 100 uM

Row | IC50 (Prothrombin [1]) | Ki (Prothrombin [2]) | IC50 (Serine protease 1 [3]) | Ki (Serine protease 1 [4]) | inhibition (Serine protease 1 [5]) | SMILES
1 | 760 nM | 65 nM | 24000 nM | – | – | C[C@H]1C(=O)N(CCCc2ccccc2)CC(=O)N1CC(=O)N[C@@H](C[C@@H]1CCCN(C(=N)N)C1)C(=O)c1nccs1
2 | 1800 nM | – | 74800 nM | – | – | CC(C)[C@H]1C(=O)N(CCCc2ccccc2)CC(=O)N1CC(=O)N[C@@H](CC1CCCN(C(=N)N)C1)C(=O)c1nccs1 (stereo partly specified)
3 | 4300 nM | 165 nM | – | – | 69% | CC(C)C[C@H]1C(=O)N(CCCc2ccccc2)CC(=O)N1CC(=O)N[C@@H](CC1CCCN(C(=N)N)C1)C(=O)c1nccs1 (stereo partly specified)
4 | 3400 nM | 200 nM | – | – | 67% | CCC(C)[C@H]1C(=O)N(CCCc2ccccc2)CC(=O)N1CC(=O)N[C@@H](CC1CCCN(C(=N)N)C1)C(=O)c1nccs1 (stereo partly specified)
5 | 430 nM | 75 nM | 18500 nM | – | – | N=C(N)N1CCCC(C[C@H](NC(=O)CN2C(=O)CN(CCCc3ccccc3)C(=O)[C@@H]2CC2CCCCC2)C(=O)c2nccs2)C1 (stereo partly specified)
6 | 1600 nM | 98 nM | 42700 nM | – | – | CCCC[C@H]1C(=O)N(CCCc2ccccc2)CC(=O)N1CC(=O)N[C@@H](CC1CCCN(C(=N)N)C1)C(=O)c1nccs1 (stereo partly specified)
7 | 240 nM | 24 nM | – | – | 80% | N=C(N)N1CCC[C@@H](C[C@H](NC(=O)CN2C(=O)CN(CCCc3ccccc3)C(=O)[C@@H]2Cc2ccccc2)C(=O)c2nccs2)C1

The remaining lines, values behind:

Row | SMILES | IC50 (Prothrombin [1]) | Ki (Prothrombin [2]) | IC50 (Serine protease 1 [3]) | Ki (Serine protease 1 [4]) | inhibition (Serine protease 1 [5])
8 | N=C(N)N1CCCC(C[C@H](NC(=O)CN2C(=O)CN(CCCc3ccccc3)C(=O)[C@@H]2CCc2ccccc2)C(=O)c2nccs2)C1 (stereo partly specified) | 590 nM | 105 nM | 29000 nM | – | –
9 | N=C(N)N1CCCC(C[C@H](NC(=O)CN2C(=O)CN(Cc3ccccc3)C(=O)[C@@H]2Cc2ccc3ccccc3c2)C(=O)c2nccs2)C1 (stereo partly specified) | – | – | 11100 nM | – | –
10 | N=C(N)N1CCCC(C[C@H](NC(=O)CN2C(=O)CN(CCCc3ccccc3)C(=O)[C@@H]2Cc2ccc3ccccc3c2)C(=O)c2nccs2)C1 (stereo partly specified) | 45 nM | 30 nM | 27000 nM | 13.5 nM | –
11 | COc1ccc(C[C@H]2C(=O)N(CCCc3ccccc3)CC(=O)N2CC(=O)N[C@@H](CC2CCCN(C(=N)N)C2)C(=O)c2nccs2)cc1 (stereo partly specified) | 350 nM | 43 nM | 3800 nM | – | –
12 | N=C(N)N1CCCC(C[C@H](NC(=O)CN2C(=O)CN(CCCc3ccccc3)C(=O)[C@@H]2Cc2cccnc2)C(=O)c2nccs2)C1 (stereo partly specified) | 1000 nM | – | – | – | 40%
13 | N=C(N)N1CCCC(C[C@H](NC(=O)CN2CC(=O)N(CCCc3ccccc3)CC2=O)C(=O)c2nccs2)C1 (stereo partly specified) | 4700 nM | 495 nM | 91200 nM | – | –
14 | N=C(N)N1CCCC(C[C@H](NC(=O)CN2C(=O)CN(CCCc3ccccc3)C(=O)C2C(c2ccccc2)c2ccccc2)C(=O)c2nccs2)C1 (stereo partly specified) | 750 nM | – | 9700 nM | – | –
15 | CN1CC(=O)N(CC(=O)N[C@@H](CC2CCCN(C(=N)N)C2)C(=O)c2nccs2)[C@@H](Cc2ccc3ccccc3c2)C1=O (stereo partly specified) | 1270 nM | 140 nM | 26600 nM | – | –
16 | N=C(N)N1CCCC(C[C@H](NC(=O)CN2C(=O)CN(CCCc3ccccc3)C(=O)[C@@H]2Cc2ccc(Cl)cc2)C(=O)c2nccs2)C1 (stereo partly specified) | 170 nM | 40 nM | 33400 nM | – | –
17 | N=C(N)NCCC[C@H](NC(=O)CN1C(=O)CN(CCCc2ccccc2)C(=O)[C@@H]1Cc1ccccc1)C(=O)c1nccs1 | 130 nM | – | 90 nM | – | –
